For series [1], the system named is LPS-stimulated RAW264.7 cells. The experiment in a line: Time of addition experiment (peptide pretreatment, LPS neutralization, post-treatment) in RAW264.7 cells. The series is classed as cell-based, mouse. Conditions: ELISA. How it is done: To identify the mechanisms underlying the anti-inflammatory effects, three different types of treatments were performed as follow.
Briefly, 10 μg/ml peptide was added to the cell culture medium and incubated with cells for 1 h at 37°C Afterwards, the RAW 264.7 cells were washed with PBS and cultured with fresh medium containing 100 ng/ml LPS for 12 h at 37°C. After treatment, TNF-α, IL-6, and IL-1β secretion in the cell supernatants was assessed.
The peptides (10 μg/ml) were incubated with 100 ng/ml LPS directly for 1 h at 37°C. RAW 264.7 cells were stimulated with these mixtures for 12 h at 37°C. Afterwards, the TNF-α, IL-6 and IL-1β levels in the cell supernatants were assessed.
Briefly, 100 ng/ml LPS was added to the cell culture medium and incubated with cells for 1 h at 37°C. Afterwards, the RAW 264.7 cells were washed with PBS and cultured with fresh medium containing 10 μg/ml peptides for 12 h at 37°C. Afterwards, the TNF-α, IL-6, and IL-1β levels in the cell supernatants were assessed.
(§1) The levels of tumor necrosis factor (TNF)-α, interleukin (IL)-6, and IL-1β in cell culture supernatants and the levels of TNF-α, IL-6, and IL-1β in the serum of mice were detected using commercial ELISA kits (eBioscience, San Diego, USA) according to the manufacturer’s instructions. The levels of serum alanine amino transferase (ALT) and aspartate amino transferase (AST) were detected using commercial reagent kits (Nanjing Jiancheng Bioengineering Institute, Nanjing, China). The activity of myeloperoxidase (MPO) in the liver of mice was detected using an ELISA kit (Boster, Wuhan, China) according to the manufacturer’s instructions.
(In an ELISA, binding on a coated surface is turned into a signal by an enzyme label.)

Series [2] concerns RAW264.7 cells. The experiment in a line: Cellular uptake and localization of FITC-labeled peptides (confocal microscopy, flow cytometry). The series is classed as cell-based, mouse. Particulars: N-terminus FITC-labeled peptide, 10 μg/ml, 24 h, 37°C, confocal microscopy and flow cytometry (average FITC intensity). As for the experimental part:
RAW264.7 cells were treated with N-terminus FITC-labeled peptides at 10 μg/ml for 24 h at 37°C; in the dark. Then, the RAW264.7 cells were rinsed with PBS three times, fixed with paraformaldehyde and washed with PBS. The cell nuclei were stained with DAPI (diluted 1:500 in PBS) (Sigma, USA) for 5 min, and the cells were washed with PBS. The above cells were spread on a glass slide, fixed and observed with a Leica TCA sp5 confocal microscope (Germany).
RAW264.7 cells were stained with 10 μg/ml N-terminus FITC-labeled peptides at 37°C in the dark for 24 h. Afterwards, the RAW264.7 cells were harvested and rinsed with PBS five times. The average FITC intensity in the cells was measured via flow cytometry.
On the technique in general: A flow cytometer gives signals particle by particle.

Series [3] deals with TLR4/MD-2 complex. Kind of series: Surface plasmon resonance binding. Conditions: SPR, Biacore X100, PBS with 0.05% Tween 20, 30 μl/min, 1:1 model, 0 to 10 μM. How it is done:
SPR assays were performed using a Biacore X100 instrument (GE Healthcare, Pittsburgh, PA, USA). PBS containing 0.05% Tween 20 was used as the running buffer. The running buffer was continuously passed into the reaction chamber at 30 μl/min. Immobilization of CTP-NH2 on the chip surface was performed according to an amino coupling protocol. […] Running buffer was injected into the empty channel as a reference. To regenerate the chip surface at the end of each experiment, 10 mM Gly-HCl buffer (pH 2.5) was injected. ProteOn manager software (version 2.0) was used to analyze the experimental data. The binding curves were processed for the start injection alignment and baseline. A reference-subtracted sensorgram was then fitted to the curves describing a homogeneous 1:1 model. Data from the protein surfaces were grouped together to fit the association kinetic rate constant (Ka) and the dissociation rate constant (Kd). The equilibrium dissociation constant (KD) for the peptide-TLR4/MD-2 interaction was calculated as follows: […]
(Surface plasmon resonance follows binding to a sensor surface in real time, without labels.)

Series [4] has as its system LPS-stimulated RAW264.7 cells. Kind of series: Anti-inflammatory assay in LPS-stimulated RAW264.7 cells (ELISA of cytokines). The series is classed as cell-based, mouse. Conditions: 10 μg/ml peptide 30 min before 100 ng/ml LPS, 12 h, 37°C, ELISA of supernatant. As for the experimental part:
RAW264.7 cells were treated with or without 10 μg/ml peptides for 30 min before the addition of 100 ng/ml LPS (E. coli, O55:B5, Sigma-Aldrich, Germany) and further incubation for 12 h at 37°C After treatment, the concentrations of TNF-α, IL-6, and IL-1β in the cell supernatants were assessed.
as §1

Series [5] relates to RAW264.7 cells. The experiment in a line: CCK-8 cell viability assay. Type of series: cell-based, mouse. Particulars: RAW264.7 macrophages, CCK-8, 0 to 80 μg/ml, 24 h or 72 h, 37°C. How it is done:
The viability of peptide-treated RAW264.7 cells was determined using a Cell Counting Kit-8 (CCK-8) Assay Kit (Dojindo) ([35]). RAW264.7 cells were plated in 96-well plates at a density of 3×10^4 cells/ml in 100 μl DMEM overnight. The cell culture medium was then supplemented with fresh medium containing candidate peptides in a series of concentrations, and the plates were incubated for another 24 h or 72 h. Each well was incubated with 10 μl CCK-8 solution for 4 h in the dark. Afterwards, the absorbance at 450 nm was measured using a microplate reader. Cell viability was determined by:
Cell viability (%)=(OD450sample/OD450(control))×100%

Series [6] can be described thus: LPS neutralization, chromogenic end-point Tachypleus Amebocyte Lysate (TAL) assay. The series is classed as binding, E. coli. As for the experimental part: The neutralization of LPS by the peptides was assessed through a quantitative Chromogenic End-point Tachypleus Amebocyte Lysate (CE TAL) assay using a QCL-1000 kit (XIAMEN BIOENDO TECHNOLOGY CO., China). LPS (E. coli, O111:B4, Sigma-Aldrich, USA) at a final concentration of 1.0 U/ml was incubated with various concentrations of the peptides (0 to 64 μg/ml final concentration) at 37°C for 15 min. Afterwards, the mixtures were incubated with TAL assay reagent at 37°C; for 6 min, and the absorbance was measured at 540 nm.

Series [7] can be described thus: Reverse-phase HPLC retention time as measure of peptide hydrophobicity. The series is classed as physicochemical. Conditions: HPLC on reverse-phase matrix, aqueous solution; used by the paper as measure of hydrophobicity. From the text:
The retention time of peptides on a reverse-phase matrix has been reported to be related to peptide hydrophobicity ([34]).

The target in series [8] is T1, TLR4/MD-2 complex (Mus musculus, UniProt Q9QUK6).
T1 chain 1: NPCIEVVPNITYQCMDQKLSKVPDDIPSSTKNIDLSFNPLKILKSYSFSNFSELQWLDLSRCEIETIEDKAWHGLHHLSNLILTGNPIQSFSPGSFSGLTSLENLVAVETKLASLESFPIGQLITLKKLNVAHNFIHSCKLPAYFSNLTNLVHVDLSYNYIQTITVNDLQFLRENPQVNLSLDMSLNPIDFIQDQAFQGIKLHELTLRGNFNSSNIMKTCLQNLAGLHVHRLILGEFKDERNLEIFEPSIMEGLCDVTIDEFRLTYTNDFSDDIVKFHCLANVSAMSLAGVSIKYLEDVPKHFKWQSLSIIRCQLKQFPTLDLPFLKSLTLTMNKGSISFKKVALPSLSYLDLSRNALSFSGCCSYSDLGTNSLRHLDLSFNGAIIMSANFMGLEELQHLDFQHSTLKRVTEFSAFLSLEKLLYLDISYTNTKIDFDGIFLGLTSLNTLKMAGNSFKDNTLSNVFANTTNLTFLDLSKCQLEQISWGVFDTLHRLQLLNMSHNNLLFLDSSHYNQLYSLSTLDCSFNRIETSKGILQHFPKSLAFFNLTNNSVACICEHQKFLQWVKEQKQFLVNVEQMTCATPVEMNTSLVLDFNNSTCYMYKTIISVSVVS
T1 chain 2: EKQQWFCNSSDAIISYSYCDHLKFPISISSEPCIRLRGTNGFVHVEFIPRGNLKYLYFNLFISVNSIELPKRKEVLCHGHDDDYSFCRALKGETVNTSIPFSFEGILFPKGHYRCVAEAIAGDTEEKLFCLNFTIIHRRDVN
The experiment in a line: SPR.

Entries after “also recorded” stand apart in the source; their conditions may differ. Ends that are not written are not given here.

On to RWGRFLRKIRRFRRKDVT [CTP], for which the “TNF-α and IL-6 level, peptide used to pretreat cells or added after LPS induction” value in series [1] (10 μg/ml peptide 1 h then wash and 100 ng/ml LPS 12 h, or LPS 1 h, wash, then peptide 12 h) is given as “scarcely reduced the elevation in the pro-inflammatory cytokines TNF-α; also recorded: barely exerted such effects”. For the same molecule, the “TNF-α and IL-6 release, peptide incubated with LPS” value in series [1] (10 μg/ml peptide incubated with 100 ng/ml LPS 1 h at 37°C, mixture on cells 12 h) was “potent inhibition of pro-inflammatory cytokine release”. In addition, the “cellular uptake and localization” value with RAW264.7 cells [2] is “rarely entered RAW264.7 cells”. In the series on TLR4/MD-2 complex [3], the Ka (association kinetic rate constant) worked out at 1.34e+07 M⁻¹ s⁻¹. Also, in series [4], the “TNF-α, IL-6 and IL-1β secretion levels” value is “enhanced inhibitory activity against LPS-induced inflammation”. Besides, the “cytotoxicity (comparison in words)” value in the series on RAW264.7 cells [5] is reported as “lower cytotoxicity than the parental peptide (CATH2) but higher cytotoxicity than TP5”. In addition, the “50% binding rate value (LPS neutralization)” value in series [6] (LPS 1.0 U/ml with 0 to 64 μg/ml peptide, 37°C 15 min, TAL reagent 6 min, absorbance 540 nm) is reported as “approximately 45.32 ± 5.19 μg/ml”. Also, the “LPS neutralization activity” value in series [6] (chromogenic TAL assay, LPS 1.0 U/ml, 0 to 64 μg/ml peptide) is “inhibited activation of LPS in a dose-dependent manner”. This molecule also gave a Retention time in series [7] of 10.94 min.
The Kd is the constant that tells how readily two partners part at equilibrium. With RWGRFLRKIRRFRRKDVT-NH2 [CTP-NH2 (CATH2(1-13)-TP5 hybrid peptide, C-terminal amide)], binding with TLR4/MD-2 complex [8] was characterised by a dissociation constant (Kd) of 947 nM.
In the series with TLR4/MD-2 complex [8], RWGRFLRKIRRFRRKDVT [CTP (CATH2(1-13)-TP5 hybrid peptide)] registered a Kd of 1400 nM.

These data come from paper PMC7892475, “C-Terminal Amination of a Cationic Anti-Inflammatory Peptide Improves Bioavailability and Inhibitory Activity Against LPS-Induced Inflammation” (Frontiers in Immunology, 2021).
